Assay results as given in patent publication US20180258100A1, “RAPAMYCIN ANALOGS SHOWING IMPROVED mTORC1 SPECIFICITY” (priority 2015, published 2018).
Where “and” joins values, the source holds several entries; their conditions need not be identical. Equal values may be shown once.

Columns and labels:
mTORC2 complex = mTORC2 complex (Mus musculus, UniProt P26883+Q9JLN9); experiment: mTORC2 assembly: immunoprecipitation of Rictor from liver and immunoblotting for mTOR; type: in vivo, male C57BL/6J mice; conditions: liver, four weeks; rapamycin 8 mg/kg, compound 390 12 mg/kg i.p. every other day
Chain of mTORC2 complex (P26883 2-108 limits assumed, other chains not shown): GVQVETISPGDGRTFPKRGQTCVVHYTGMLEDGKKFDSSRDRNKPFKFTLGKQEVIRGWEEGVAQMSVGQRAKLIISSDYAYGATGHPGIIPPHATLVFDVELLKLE
Experimental: (§1) Fortyfive C57BL/6J male mice, housed three per cage, were weighed and their body composition was measured with an EchoMRI 3-in-1 system. […] Mice received every-other-day injections of either vehicle, rapamycin (8 mg/kg), or compound 390 (12 mg/kg). A glucose tolerance test was performed after 2 weeks (morning after the 8th injection). A pyruvate tolerance test was performed after 3 weeks. Glucose stimulated insulin secretion assay was performed after 4 weeks and additional blood was collected for whole blood analysis. Body composition was measured on day −2 and day 31.

mTORC1 [1] = biological target: mTORC1 (Mus musculus, UniProt P26883+Q9JLN9); experiment: Western blot of mouse tissues after 3 weeks i.p. dosing, mTORC1 (P-S6/total S6); type: in vivo, female C57BL/6J mice; conditions: 12 mg/kg i.p. every other day for 3 weeks
Experimental: (§2) 10-week old female C57BL/6J mice were given intraperitoneal injections of 8 mg/kg rapamycin (LC laboratories), 12 mg/kg compound 390 or vehicle every other day for three weeks (N=5 mice/group), such as to mimic chronic exposure conditions. 24 hours after the last injection, tissues were dissected from the mice and immediately frozen in liquid nitrogen. The tissues were homogenized using the Omni TH homogenizer (Omni International) on ice in RIPA buffer and then centrifuged at 13,000 rpm for 15 minutes at 4° C. The supernatants were collected and protein concentration was determined using the DC protein assay (Biorad).
The mTORC1/2 inhibition was determined by Western blots. Equal amounts of protein were resolved by SDS-PAGE and transferred to nitrocellulose membrane using the Invitrogen Nu-Page system. The membranes were blocked for 1 h in 5% milk and incubated overnight in the appropriate antibodies. The following day, blots were washed 3 times in TBST, incubated for 2 h with secondary antibodies (donkey anti rabbit hrp conjugated), and finally washed an additional 3 times in TBST. ECL Prime (Amersham) was used to detect the proteins of interest and ImageJ software was used to quantify the band intensity of the Western blots.

[2] = Fat mass by EchoMRI body composition after four weeks; type: in vivo, male C57BL/6J mice; conditions: 4 weeks of every other day administration; rapamycin 8 mg/kg, compound 390 12 mg/kg; versus vehicle
Experimental: Fortyfive C57BL/6J male mice, housed three per cage, were weighed and their body composition was measured with an EchoMRI 3-in-1 system. Cages were sorted into three groups—vehicle, rapamycin, and compound 390—such that the average weight was similar for all three groups. Mice received every-other-day injections of either vehicle, rapamycin (8 mg/kg), or compound 390 (12 mg/kg). A glucose tolerance test was performed after 2 weeks (morning after the 8th injection). A pyruvate tolerance test was performed after 3 weeks. Glucose stimulated insulin secretion assay was performed after 4 weeks and additional blood was collected for whole blood analysis. Body composition was measured on day −2 and day 31.

[3] = Insulin challenge response; type: in vivo, female C57BL/6J mice; conditions: 0.75 IU/kg insulin after 2 weeks; rapamycin 8 mg/kg, compound 390 12 mg/kg i.p. every other day
Experimental: FIG. 10. Response to insulin challenge following administration of 0.75 IU/kg insulin at t=2 weeks following the initiation of the intraperitoneal administrations of 8 mg/kg rapamycin, 12 mg/kg compound 390 or vehicle control every other day in female mice (N=5).
as §2

[4] = Glucose tolerance test after 2 weeks of chronic dosing; type: in vivo, male C57BL/6J mice; conditions: rapamycin 8 mg/kg, compound 390 12 mg/kg every other day, male mice
Experimental: as §1
Mice were fasted overnight for 16 hours and then injected with either glucose (1 g/kg) or pyruvate (2 g/kg) intraperitoneally. For glucose and pyruvate tolerance tests, small blood samples were taken from a tail vein nick at time intervals and read using a Bayer Contour blood glucose meter and test strips. For glucose-stimulated insulin secretion, blood glucose levels were read using a glucometer and then 50 μL of blood was collected into a heparinized tube immediately prior to and 15 minutes following glucose administration. Insulin levels were determined using a Mouse Insulin ELISA kit (Crystal Chem).

mTORC2 = biological target: T1, mTORC2 (Homo sapiens, UniProt P42345+P62942); experiment: AlphaLISA SureFire Akt 1/2/3 in PC3 cells, phosphorylation of Akt at Ser473 (mTORC2 inhibition); type: cell-based
T1 construct: endogenous in cells; host or cells: PC3 cells
T1 sequence (P62942 2-108 limits assumed, other chains not shown): as the sequence (P26883 2-108 limits assumed, other chains not shown) above, with T49M, I75T, S78P counted along it
Experimental: mTORC1 inhibition was determined using the AlphaLISA® SureFire® kit (Perkin Elmer) which measures phosphorylation of S6 kinase at positions Ser^240 and Ser^244. mTORC2 inhibition was determined by the AlphaLISA® SureFire® kit for Akt 1/2/3, which determines phospholyltation of Akt protein at position Ser^473. Cells from plates were lysed and incubated for 10 min at room temperature while shaking. Cell lysates were incubated with acceptor mix for 2 hours at room temperature; the donor mix was then added and the resulting solution was incubated for 2 hours at room temperature. AlphaLISA® signal was determined on a Fusion-Alpha FP HT (Perkin Elmer). Percent inhibition was calculated by comparison to the highest inhibition value obtained in the response-concentration curve. IC50s were calculated using Prism software. […]

mTORC1 [5] = biological target: T2, mTORC1 (Homo sapiens, UniProt P42345+P62942); experiment: AlphaLISA SureFire in PC3 cells, phosphorylation of S6 at Ser240/Ser244 (mTORC1 inhibition, selectivity ratios); type: cell-based
T2 construct: endogenous in cells; host or cells: PC3 cells
Experimental: PC3 cells were maintained in F12K media (ATCC/GIBCO, Cat# ATCC 30-2004) supplemented with additional 10% FBS (Gemini, cat#100-106), 1% Penicillin/Streptomycin (Life Technologies, cat #15140-122), and 2 mM L-Glutamine (Life Technologies, cat#25030) and cultured at 37° C. For AlphaLISA experiments, cells were seeded in 96-well plates for 24 hours and treated at various concentrations of compound (from approx. 8 fM to 10 μM) for 24 hours. Cells were harvested by lysis in the buffer supplied with the AlphaLISA kit. […] Cells from plates were lysed and incubated for 10 min at room temperature while shaking. Cell lysates were incubated with acceptor mix for 2 hours at room temperature; the donor mix was then added and the resulting solution was incubated for 2 hours at room temperature. AlphaLISA® signal was determined on a Fusion-Alpha FP HT (Perkin Elmer). Percent inhibition was calculated by comparison to the highest inhibition value obtained in the response-concentration curve. IC50s were calculated using Prism software.

[6] = Glucose challenge response; type: in vivo, female C57BL/6J mice; conditions: 2 mg/kg glucose after 1 week; rapamycin 8 mg/kg, compound 390 12 mg/kg i.p. every other day
Experimental: as §2
Steady state glucose levels were determined after one week from study initiation using a Bayer Contour blood glucose meter and test strips from small blood samples, which were withdrawn from a tail vein nick. […]

mTORC1 [7] = biological target: T2, mTORC1; experiment: Western blot of PC3 cells treated with 100 nM compound, mTORC1 readout (pS6k/S6k); type: cell-based
Experimental: Protein concentrations were determined using the DC protein assay (Biorad). Equal amounts of protein were resolved by SDS-PAGE and transferred to nitrocellulose membrane using the Nu-Page system. […] The following day, blots were washed 3 times in TBST, incubated for 2 h with secondary antibodies, and finally washed an additional 3 times in TBST.

[8] = Plasma lipid levels after chronic i.p. dosing; type: in vivo, female C57BL/6J mice; conditions: rapamycin 8 mg/kg, compound 390 12 mg/kg i.p. every other day; versus vehicle
Experimental: as §2
Plasma lipid levels were determined at the end of the three-week exposure. Free fatty acids in the serum were measured by the HR Series NEFA-HR(2) (Wako Diagnostics, Richmond, Va.). Triglycerides and cholesterol in serum were measured by Triglycerides Liquicolor Test and Cholesterol Liquicolor Test (Stanbio laboratory, Boerne, Tex.), respectively.

CO[C@H]1CC2CC[C@@H](C)[C@@](O)(O2)C(=O)C(=O)N2CCCC[C@H]2C(=O)O[C@H]([C@@H](C)CC2CCC(O)CC2)CC(=O)[C@@H](C)/C=C(\C)[C@H](O)[C@H](O)C(=O)[C@@H](C)C[C@H](C)/C=C/C=C/C=C/1C (some centres unmarked) [compound 390, 27-O-Desmethyl-39-Desmethoxy Rapamycin]
integrity of hepatic mTORC2 complex assembly (mTORC2 complex): no effect upon hepatic mTORC2 assembly | mTORC1 inhibition in tissues (mTORC1 [1]; soleus muscle and liver): only partially inhibits mTORC1 | mTORC1 inhibition in tissues (mTORC1 [1]; visceral fat, gastrocnemius muscle, pancreas, lung and kidney): strong inhibition of mTORC1 | fat mass (adiposity) [2]: does not induce any increase of adiposity | glucose response after insulin challenge (insulin resistance) [3]: indistinguishable from the vehicle-receiving control animals | glucose tolerance test ([4]; after 2 weeks): identical to the vehicle-receiving animals | fasting hyperglycemia ([4]; chronic dosing): does not cause | lower inhibition of mTORC2 compared to rapamycin (mTORC2): ~150 fold | improvement of mTORC1 over mTORC2 selectivity compared to rapamycin (average) (mTORC1 [5]; AlphaLISA IC50 ratios): 51 fold | improvement of mTORC1 over mTORC2 selectivity compared to rapamycin (range) (mTORC1 [5]; AlphaLISA IC50 ratios): 52-63 fold | Average IC50^mTORC2/IC50^mTORC1 (mTORC1 [5]; average of four replicates, 24 h): 429.90 | IC50^mTORC2/IC50^mTORC1 (mTORC1 [5]; single replicates #1-#4 (N = 3 each), mTORC2 IC50 of the measurement divided by average mTORC1 IC50, 24 h, listed as nID390): 477.07 and 533.79 and 445.85 and 262.89 | glucose response after glucose challenge (glucose intolerance) [6]: indistinguishable from the vehicle-receiving control animals | mTORC1 inhibition (pS6k/S6k) (mTORC1 [7]): full mTORC1 inhibition | plasma cholesterol [8]: did not produce any changes | plasma free fatty acids [8]: did not produce any changes | plasma triglycerides [8]: did not produce any changes
